We go through nine molecules from publication PMC9696832, “Pyrazole-Based Thrombin Inhibitors with a Serine-Trapping Mechanism of Action: Synthesis and Biological Activity” (Pharmaceuticals, 2022).

One data set deals with human chymotrypsin. Put plainly: Serine protease inhibition assay, fluorogenic substrate: chymotrypsin. The format is biochemical. The note with it: for IC50: screened at 5 μM, IC50 in triplicate for actives, [S]0 = 25 µM, read-out: Serine Protease IC50 ± SD, Chymotrypsin. How it is done:
(§1) Serine protease inhibition assays. The inhibitory activity of synthesized compounds towards thrombin, FXIIa, FXa, FXIa, plasmin, plasma kallikrein, chymotrypsin, and trypsin was measured by quantifying the hydrolysis rate of the fluorogenic substrate as reported previously. Briefly, the activity was tested in buffer (10 mM Tris-Cl, 150 mM NaCl, 10 mM MgCl2·6H2O, 1 mM CaCl2·2H2O, 0.1% w/v BSA, 0.01% v/v Triton-X100, pH = 7.4) utilizing clear flat-bottom, black polystyrene 96 well-plates. […] Dilutions of test-compounds ranging from 2 nM to 32 µM (final concentrations) in DMSO were prepared. The fluorogenic substrate solution was added into the wells followed by the addition of 2 µL of test-compounds solution, and the reaction was triggered by addition of the enzyme solution (final testing volume–152 µL). In case of blank (substrate + buffer) and control (substrate + enzyme) wells, 2 µL of DMSO was added instead of the test-compounds’ solution. Fluorescence intensity was measured with Microplate Reader Mithras LB 940 (Berthold Technologies, excitation at 355 nm, emission at 460 nm) for a period of 1 h (thrombin, FXIIa, FXa, FXIa, and trypsin), 30 min (plasma kallikrein, chymotrypsin), or 15 min (plasmin) with a read every minute. The reactions were performed at 25 °C. To derive IC50 values, endpoint RFU (single fluorescence reading) was used. Sigmoidal curves were prepared in GraphPad Prism software and IC50 values were derived from the fitted curves.

A further data set has as its target T1, human Factor Xa (Homo sapiens, UniProt P00742).
T1 construct: human Factor Xa, HFXA; purchased Molecular Innovations HFXA
As to the kind of experiment: Serine protease inhibition assay, fluorogenic substrate: FXa. The format is biochemical. The following applies: for IC50: screened at 5 μM, IC50 in triplicate for actives, [S]0 = 25 µM, read-out: Serine Protease IC50 ± SD, FXa. How it is done: as §1

The target in data set [1] is T2, human α-thrombin (Homo sapiens, UniProt P00734).
T2 construct: human α-thrombin (active) protein; purchased antibodies-online ABIN2127880
As to the kind of experiment: Serine protease inhibition assay, fluorogenic substrate: thrombin. The format is biochemical. The note with it: for IC50: read-out: Serine Protease IC50 ± SD, Thrombin.
Description: Serine protease inhibition assays. The inhibitory activity of synthesized compounds towards thrombin, FXIIa, FXa, FXIa, plasmin, plasma kallikrein, chymotrypsin, and trypsin was measured by quantifying the hydrolysis rate of the fluorogenic substrate as reported previously [14, 17]. Briefly, the activity was tested in buffer (10 mM Tris-Cl, 150 mM NaCl, 10 mM MgCl2·6H2O, 1 mM CaCl2·2H2O, 0.1% w/v BSA, 0.01% v/v Triton-X100, pH = 7.4) utilizing clear flat-bottom, black polystyrene 96 well-plates. […] The fluorogenic substrate solution was added into the wells followed by the addition of 2 µL of test-compounds solution, and the reaction was triggered by addition of the enzyme solution (final testing volume–152 µL). In case of blank (substrate + buffer) and control (substrate + enzyme) wells, 2 µL of DMSO was added instead of the test-compounds’ solution. […] To derive IC50 values, endpoint RFU (single fluorescence reading) was used. Sigmoidal curves were prepared in GraphPad Prism software and IC50 values were derived from the fitted curves [14, 17].

For another data set, the target named is T3, human plasma kallikrein (Homo sapiens, UniProt P03952).
T3 construct: human plasma kallikrein, >94% purity; purchased Innovative Research
Put plainly: Serine protease inhibition assay, fluorogenic substrate: plasma kallikrein. The format is biochemical. The following applies: screened at 5 μM; IC50 in triplicate for actives; [S]0 = 25 µM; read-out: Serine Protease IC50 ± SD, PK (plasma kallikrein). How it is done:
as §1

For a further data set, the target named is T4, human Factor XIa (Homo sapiens, UniProt P03951).
T4 construct: human Factor XIa, HFXIA; purchased Molecular Innovations HFXIA
As to the kind of experiment: Serine protease inhibition assay, fluorogenic substrate: FXIa. The format is biochemical. How it is done:
as §1

The target in another data set is T5, porcine trypsin (Sus scrofa, UniProt P00761).
T5 construct: porcine trypsin; Merck; purchased Merck
As to the kind of experiment: Serine protease inhibition assay, fluorogenic substrate: trypsin. The data set is classed as biochemical. The following applies: screened at 5 μM; [S]0 = 25 µM; read-out: Serine Protease IC50 ± SD, Trypsin. How it is done:
as §1

Data set [2] relates to human pooled plasma. Put plainly: In vitro plasma coagulation assay (aPTT). The format is biochemical. The note with it: tested at 200 μM. How it is done: (§2) In vitro plasma coagulation assays (aPTT and PT). All measurements were performed using commercially available citrated (3.8%) human pooled plasma (Dunn Labortechnik GmbH, Germany) on a semi-automated coagulometer (Thrombotimer-2, Behnk Elektronik, Germany) according to the manufacturer instructions as previously reported. For aPTT measurement, plasma (100 μL) was placed into the incubation cuvettes of the instrument and incubated for 2 min at 37 °C. Then, test compound solution (10 μL) or solvent (DMSO, 10 μL) was added with a pipette. After 1 min of incubation, 100 μL of prewarmed (37 °C) aPTT reagent (Convergent Technologies, Germany) was added and incubated for additional 2 min. The cuvettes were transferred to a measuring position, the coagulation was initiated by addition of 100 μL of CaCl2 solution (25 mM, prewarmed at 37 °C, Convergent Technologies, Germany) and the clotting time was recorded. For PT assays, plasma (100 μL) was incubated for 2 min at 37 °C. Then, test compound solution (10 μL) or solvent (DMSO, 10 μL) was added with a pipette. After 3 min of incubation, the cuvettes were transferred to a measuring position, the coagulation was initiated by addition of 100 μL of PT assay reagent already containing CaCl2 (prewarmed at 37 °C, Biolabo, France) and the clotting time was recorded.

The subject of data set [3] is human pooled plasma. As to the kind of experiment: In vitro plasma coagulation assay (PT). The data set is classed as biochemical. The note with it: tested at 200 μM. How it is done:
as §2

A further data set concerns the target T6, human β-FXIIa (Homo sapiens, UniProt P00748).
T6 construct: human β-FXIIa, HFXIIAB; purchased Molecular Innovations HFXIIAB
Put plainly: Serine protease inhibition assay, fluorogenic substrate: FXIIa. The format is biochemical. The following applies: read-out: Serine Protease IC50 ± SD, FXIIa. How it is done: as §1

A further data set concerns the target T7, human plasmin (Homo sapiens, UniProt P00747).
T7 construct: human plasmin, >95% purity; purchased Innovative Research
Put plainly: Serine protease inhibition assay, fluorogenic substrate: plasmin. The data set is classed as biochemical. The note with it: screened at 5 μM; [S]0 = 25 µM; read-out: Serine Protease IC50 ± SD, Plasmin. How it is done:
as §1

Data set [4] addresses T2, human α-thrombin. As to the kind of experiment: Mass-shift assay of the covalent thrombin-inhibitor complex by LC/ESI-MS. The following applies: 79 μM inhibitor, preincubated 15 min, ESI(+); corresponds to pivaloyl moiety. How it is done: Analysis of the covalent thrombin-inhibitor complex by LC/ESI-MS. The analysis of covalent thrombin-inhibitor complex was performed utilizing LC/ESI-MS as reported previously with variations. Briefly, 2 µL of the stock solution (128 µM) of human α-thrombin (active) protein (ABIN2127880, >95% purity; antibodies-online) were diluted with 68 µL of purified water. […] Reversed phase liquid chromatography was performed using a Discovery BIO Wide Pore C5 column (100 × 2.1 mm, 3 µm particle size, 300 Å pore size) from Supelco (Bellefonte, PA, USA). For chromatographic analysis of the sample solutions, 0.1% formic acid in purified water (A) and 0.1% formic acid in acetonitrile (B) were used as mobile phase. The following gradient of 15 min in total was applied: starting with 5% B, B is increased up to 40% within 3 min. After holding 40% B for 1.5 min, B is decreased to 5% within 0.5 min and kept at 5% for 1 min. B is then increased to 95% within 4 min and kept at this value for 1 min. After decreasing B to 5% within 1 min, this ratio is kept for 3 min. […] The enzyme-inhibitor complex was analyzed in the positive ion mode using the following ESI-MS parameters: The mass range was set to m/z 1000–4000, nebulizer gas (nitrogen) was 1.6 bar, dry gas (nitrogen) was 9.0 L/min, dry gas temperature was 200 °C, Funnel 1 RF was 450 V, pre pulse storage time was 30 µs and transfer time was 100 µs. […]

The mark [5] stands for this setting: screened at 5 μM, IC50 in triplicate for actives, [S]0 = 25 µM, read-out: Serine Protease IC50 ± SD, FXIa.
The mark [6] stands for this setting: [S]0 = 25 µM Boc-Val-Pro-Arg-AMC, Km = 18 ± 1 µM, triplicate, 25 °C.

“And” between values parts separate entries of the source, which are not always exact repeats. Identical values can stand only once. Like-named read-outs stand apart in the source and are kept apart here. Where only a bound is given, the exact number is not on record here.

T6 sequence (P00748 373-615 limits assumed, other chains not shown): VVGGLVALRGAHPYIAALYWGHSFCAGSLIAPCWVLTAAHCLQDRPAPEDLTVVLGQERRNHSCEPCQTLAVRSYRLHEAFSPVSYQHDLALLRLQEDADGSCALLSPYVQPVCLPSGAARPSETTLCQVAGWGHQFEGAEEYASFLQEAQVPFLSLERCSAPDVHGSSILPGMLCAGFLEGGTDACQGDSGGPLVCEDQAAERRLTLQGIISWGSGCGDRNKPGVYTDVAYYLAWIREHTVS
T3 sequence (P03952 391-638 limits assumed): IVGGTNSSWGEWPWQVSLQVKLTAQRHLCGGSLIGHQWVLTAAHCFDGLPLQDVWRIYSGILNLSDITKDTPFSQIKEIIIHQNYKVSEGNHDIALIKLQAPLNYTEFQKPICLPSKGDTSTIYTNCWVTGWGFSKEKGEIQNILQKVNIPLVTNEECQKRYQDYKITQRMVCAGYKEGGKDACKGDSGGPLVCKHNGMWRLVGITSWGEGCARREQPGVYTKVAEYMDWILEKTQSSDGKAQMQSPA
T3 sequence (P03952 20-390 limits assumed): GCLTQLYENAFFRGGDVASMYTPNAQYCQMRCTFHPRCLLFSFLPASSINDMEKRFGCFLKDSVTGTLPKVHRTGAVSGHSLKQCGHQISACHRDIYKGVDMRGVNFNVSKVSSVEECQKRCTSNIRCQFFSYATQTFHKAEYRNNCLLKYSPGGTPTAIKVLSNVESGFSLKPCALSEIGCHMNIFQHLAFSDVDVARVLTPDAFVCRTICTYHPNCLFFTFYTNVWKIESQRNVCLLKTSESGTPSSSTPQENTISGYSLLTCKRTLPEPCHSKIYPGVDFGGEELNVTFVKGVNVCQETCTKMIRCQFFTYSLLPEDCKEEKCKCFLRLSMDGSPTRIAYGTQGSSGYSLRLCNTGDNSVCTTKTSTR
T4 sequence (P03951 388-625 limits assumed): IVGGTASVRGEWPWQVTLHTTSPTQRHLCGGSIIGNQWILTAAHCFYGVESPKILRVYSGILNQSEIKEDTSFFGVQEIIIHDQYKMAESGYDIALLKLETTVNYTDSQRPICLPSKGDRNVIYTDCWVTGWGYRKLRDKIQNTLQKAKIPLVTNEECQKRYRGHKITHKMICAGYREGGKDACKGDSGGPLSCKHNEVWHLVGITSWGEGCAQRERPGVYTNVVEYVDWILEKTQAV
T4 sequence (P03951 19-387 limits assumed): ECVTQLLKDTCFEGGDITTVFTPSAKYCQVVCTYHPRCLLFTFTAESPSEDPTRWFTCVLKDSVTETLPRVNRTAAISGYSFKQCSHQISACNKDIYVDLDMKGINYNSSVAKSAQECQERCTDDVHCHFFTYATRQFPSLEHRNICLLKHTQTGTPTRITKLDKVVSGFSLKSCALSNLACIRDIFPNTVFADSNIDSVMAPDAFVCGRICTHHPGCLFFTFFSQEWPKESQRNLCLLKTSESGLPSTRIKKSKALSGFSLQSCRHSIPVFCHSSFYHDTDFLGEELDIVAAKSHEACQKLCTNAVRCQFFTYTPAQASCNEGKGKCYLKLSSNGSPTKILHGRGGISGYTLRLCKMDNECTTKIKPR
T7 sequence (P00747 581-810 limits assumed): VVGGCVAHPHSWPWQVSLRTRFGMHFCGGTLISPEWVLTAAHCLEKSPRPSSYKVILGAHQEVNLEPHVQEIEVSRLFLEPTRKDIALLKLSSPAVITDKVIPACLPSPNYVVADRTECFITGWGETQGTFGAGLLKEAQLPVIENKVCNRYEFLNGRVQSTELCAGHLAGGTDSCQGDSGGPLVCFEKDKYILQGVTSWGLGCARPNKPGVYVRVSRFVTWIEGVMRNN
T7 sequence (P00747 97-580 limits assumed): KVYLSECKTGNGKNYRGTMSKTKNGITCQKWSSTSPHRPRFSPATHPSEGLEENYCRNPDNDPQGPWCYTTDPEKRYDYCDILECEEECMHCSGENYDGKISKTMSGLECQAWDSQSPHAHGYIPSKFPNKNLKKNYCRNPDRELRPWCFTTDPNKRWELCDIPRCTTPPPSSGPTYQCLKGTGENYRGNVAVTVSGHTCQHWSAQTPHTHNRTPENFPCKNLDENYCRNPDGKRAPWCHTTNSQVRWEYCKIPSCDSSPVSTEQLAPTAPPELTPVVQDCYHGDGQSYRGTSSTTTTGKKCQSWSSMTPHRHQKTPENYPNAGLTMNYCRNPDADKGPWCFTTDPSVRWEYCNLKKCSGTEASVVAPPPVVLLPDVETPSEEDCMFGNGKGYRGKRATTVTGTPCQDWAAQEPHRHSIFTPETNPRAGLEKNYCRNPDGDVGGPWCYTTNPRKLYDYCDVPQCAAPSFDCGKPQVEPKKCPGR
T5 sequence (P00761 9-231): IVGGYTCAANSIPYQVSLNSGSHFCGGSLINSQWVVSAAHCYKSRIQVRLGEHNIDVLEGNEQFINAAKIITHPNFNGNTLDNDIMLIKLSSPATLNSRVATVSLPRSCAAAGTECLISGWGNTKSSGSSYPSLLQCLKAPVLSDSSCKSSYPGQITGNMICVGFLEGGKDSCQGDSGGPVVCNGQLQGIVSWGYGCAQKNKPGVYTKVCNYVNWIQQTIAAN
T1 sequence (P00742 235-488 limits assumed): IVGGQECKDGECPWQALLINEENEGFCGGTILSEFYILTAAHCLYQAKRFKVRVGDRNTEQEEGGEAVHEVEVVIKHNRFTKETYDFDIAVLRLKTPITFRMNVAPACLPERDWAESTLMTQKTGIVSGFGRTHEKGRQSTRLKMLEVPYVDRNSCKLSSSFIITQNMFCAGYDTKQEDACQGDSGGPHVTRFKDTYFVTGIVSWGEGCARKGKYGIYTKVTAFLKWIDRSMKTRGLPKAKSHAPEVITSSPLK
T1 sequence (P00742 41-179 limits assumed): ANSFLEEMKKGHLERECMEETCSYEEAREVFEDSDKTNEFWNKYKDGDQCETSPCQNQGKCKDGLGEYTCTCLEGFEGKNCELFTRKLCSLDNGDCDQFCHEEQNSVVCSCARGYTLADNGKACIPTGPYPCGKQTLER

Turning to `O=C(c1ccccc1)n1nc(-c2ccccc2)c(F)c1NCc1ccc(Cl)s1` [34b, (5-(((5-chlorothiophen-2-yl)methyl)amino)-4-fluoro-3-phenyl-1H-pyrazol-1-yl)(phenyl)methanone], the IC50 (as a rule, the concentration that inhibits the measured activity by half) in the data set with human chymotrypsin is 1.15 ± 0.11 µM; at human Factor Xa, greater than 5 µM; on human α-thrombin [1], 0.071 ± 0.003 µM; at human plasma kallikrein it was greater than 5 µM; at human Factor XIa (setting [5]), greater than 5 µM; on porcine trypsin, greater than 5 µM. In addition, the IC50 on human β-FXIIa and at human plasmin was greater than 5 µM each time. The “aPTT, fold increase compared to DMSO” value with human pooled plasma [2] was determined as 1.0 fold. For the same molecule, the “PT, fold increase compared to DMSO” value in the data set with human pooled plasma [3] came to 1.1 fold.
For `CC(C)(C)C(=O)n1nc(-c2cccnc2)cc1NCc1ccc(Cl)s1` [24e, 1-(5-{[(5-chlorothiophen-2-yl)methyl]amino}-3-(pyridin-3-yl)-1H-pyrazol-1-yl)-2,2-dimethylpropan-1-one], the melting point – broadly, the temperature, or range, at which the solid turns liquid – lay within 96 to 97 °C. The IC50 in the data set with human chymotrypsin is 0.875 ± 0.059 µM. For the same molecule, the “fold higher dose for 50% inhibition of chymotrypsin than for thrombin” value in the data set with human chymotrypsin (selectivity chymotrypsin vs thrombin) worked out at 55 fold. Further, the concentration for half-maximal inhibition (IC50) on human Factor Xa is greater than 5 µM. Besides, the “fold more potent thrombin inhibitor than 3-phenyl-substituted analog 24g” value on human α-thrombin [1] (IC50 16 nM vs. 419) turned out to be 26 fold. Further, the IC50 on human α-thrombin [1] (setting [6]) stood at 0.016 ± 0.001 µM. Moreover, at human plasma kallikrein, the half-maximal inhibitory concentration (IC50) is greater than 5 µM. The IC50 on human Factor XIa (setting [5]) is greater than 5 µM. In addition, on human α-thrombin [4], the “mass-shift of thrombin after incubation with inhibitor (Δm)” value was 84.5 Da and 84.53 Da. For the same molecule, the half-maximal inhibitory concentration (IC50) at porcine trypsin is greater than 5 µM. The “aPTT, fold increase compared to DMSO” value with human pooled plasma [2] worked out at 1.1 fold. Also, in the data set with human pooled plasma [3], the “PT, fold increase compared to DMSO” value is reported as 1.1 fold. Also, the concentration for half-maximal inhibition (IC50) on human β-FXIIa was greater than 5 µM. The IC50 at human plasmin was greater than 5 µM.
Turning to `O=C(c1ccccc1)n1nc(-c2cccnc2)cc1NCc1ccc(Cl)s1` [compound 25, (5-{[(5-chlorothiophen-2-yl)methyl]amino}-3-(pyridin-3-yl)-1H-pyrazol-1-yl)(phenyl)methanone], the half-inhibitory concentration (IC50) was 0.242 ± 0.013 µM in the data set with human chymotrypsin; roughly 5 µM at human Factor Xa; 0.018 ± 0.001 µM on human α-thrombin [1] (setting [6]); 0.639 ± 0.156 µM on human plasma kallikrein; 1 µM on human Factor XIa (read-out: FXIa IC50); 1.02 ± 0.09 µM on human Factor XIa (setting [5]). Further, the 50% inhibitory concentration (IC50) on porcine trypsin, on human β-FXIIa and on human plasmin was greater than 5 µM each time. Further, the inhibition (in general, the change of the read-out against control, counted positive when it falls) at 5 µM against human Factor Xa (at 5 μM) amounted to 54%. Besides, the “aPTT, fold increase compared to DMSO” value in the data set on human pooled plasma [2] was determined as 1.1 fold. Moreover, the “PT, fold increase compared to DMSO” value with human pooled plasma [3] came out at 1.2 fold.
Turning to `O=C(c1ccccc1I)n1nc(-c2cccnc2)cc1NCc1ccco1` [9d, {5-[(furan-2-ylmethyl)amino]-3-(pyridin-3-yl)-1H-pyrazol-1-yl}(2-iodophenyl)methanone], the melting point lay within 103 to 104 °C. In addition, at human α-thrombin [1], the IC50 is greater than 5 µM. Besides, the concentration for half-maximal inhibition (IC50) at human β-FXIIa is greater than 5 µM.
As to `O=c1c2ccccc2n(Cc2ccco2)c2cc(-c3cccnc3)nn12` [10d, 4-[(furan-2-yl)methyl]-2-(pyridin-3-yl)pyrazolo[5,1-b]quinazolin-9(4H)-one], the melting point was found to be 272 °C. The half-inhibitory concentration (IC50) at human α-thrombin [1] is greater than 5 µM. Besides, the half-maximal inhibitory concentration (IC50) at human β-FXIIa is greater than 5 µM.
With `O=c1c2ccccc2n(Cc2ccc(Cl)s2)c2cc(-c3cccnc3)nn12` [10e, 4-[(5-chlorothiophen-2-yl)methyl]-2-(pyridin-3-yl)pyrazolo[5,1-b]quinazolin-9(4H)-one], the melting point lay in the range of 248 to 249 °C. In addition, at human α-thrombin [1], the IC50 is greater than 5 µM. In addition, at human β-FXIIa, the concentration for half-maximal inhibition (IC50) is greater than 5 µM.
`O=C(c1ccccc1I)n1nc(-c2cccnc2)cc1NCc1cccc2ccccc12` [9c, (2-iodophenyl)(5-{[(naphthalen-1-yl)methyl]amino}-3-(pyridin-3-yl)-1H-pyrazol-1-yl)methanone]: the melting point was found to be 137 °C. In addition, at human α-thrombin [1], the half-inhibitory concentration (IC50) is greater than 5 µM. In addition, the IC50 at human β-FXIIa was greater than 5 µM.
As for `CC(C)(C)C(=O)n1nc(C2CCCCC2)cc1NCc1ccc(Cl)s1` [24i, 1-(5-{[(5-chlorothiophen-2-yl)methyl]amino}-3-cyclohexyl-1H-pyrazol-1-yl)-2,2-dimethylpropan-1-one], the melting point was 92 to 93 °C. Moreover, the half-inhibitory concentration (IC50) on human α-thrombin [1] (setting [6]) is greater than 5 µM. In addition, the IC50 on human β-FXIIa was greater than 5 µM.
As to `CC(C)(C)C(=O)n1nc(-c2ccccc2)c(F)c1NCc1ccc(Cl)s1` [34a, 1-(5-(((5-chlorothiophen-2-yl)methyl)amino)-4-fluoro-3-phenyl-1H-pyrazol-1-yl)-2,2-dimethylpropan-1-one], the IC50 with human chymotrypsin was greater than 5 µM; at human Factor Xa, greater than 5 µM; on human α-thrombin [1] (setting [6]) it was 0.08 ± 0.002 µM; on human plasma kallikrein, greater than 5 µM; on human Factor XIa (setting [5]), greater than 5 µM; at porcine trypsin, greater than 5 µM. Besides, the half-inhibitory concentration (IC50) at human β-FXIIa and at human plasmin was greater than 5 µM throughout. For the same molecule, the “aPTT, fold increase compared to DMSO” value with human pooled plasma [2] was 1.0 fold. Also, the “PT, fold increase compared to DMSO” value in the data set with human pooled plasma [3] is given as 1.1 fold.
